One series deals with Sprague-Dawley rats. The series is described as follows: Antinociceptive activity, cold ethanol tail-flick test after oral gavage. The class given is in vivo, rat. Conditions: oral gavage in sesame oil, 60 uM/kg, one dose; tail-flick at −20° C., cutoff 40 seconds. (In general: Hot-plate and tail-flick tests time the reaction to a heat stimulus.)
The subject of series [1] is healthy volunteers. The series is described as follows: Double-blind trial, heat pain threshold (hot water at 50° C.) after oral capsule. It counts as in vivo, human. The settings on record: oral, individual data, 33 45 mg, NB 35 mg, 39 68 mg. The procedure:
Double-blind, NB hydrochloride and NB-39 controlled, trial of the antinociceptive effect of oral NB-33 in healthy volunteers. […] Each week a healthy volunteer would receive a pill from the assigned set in a random fashion and take it orally. […]
(§1) Following one week of a wash out period, each volunteer repeated the protocol until all pills from the assigned set were administered. The individual data for heat pain threshold as % MPE=[(test latency−baseline latency)/(baseline latency)]×100 and for miosis as % MPE=[(test diameter−baseline diameter)/(baseline diameter)]×100 are shown in Table 2 and Table 3 respectively.
(§2) Independent samples t-test was used to compare the means of % MPE analgesia and miosis in the two pairs of samples: NB-33 and NB and NB-33 and NB-39. All analyses were made using SPSS (v.25). • Bold indicates statistical significance at α=0.05

In series [2] the test system is healthy volunteers. The series is described as follows: Double-blind trial, miosis after oral capsule. The class given is in vivo, human. Conditions: oral, individual data, 33 45 mg, NB 35 mg, 39 68 mg. The procedure: Double-blind, NB hydrochloride and NB-39 controlled, trial of the antinociceptive effect of oral NB-33 in healthy volunteers. Each of the three healthy volunteers was assigned a set of 6 non-transparent gelatin capsules as follows: 2×NB hydrochloride (MW=393.4; 39 mg), 2×NB-33 (MW=451.6; 45 mg) and 2×NB-39 (MW=680.0; 68 mg). Each week a healthy volunteer would receive a pill from the assigned set in a random fashion and take it orally. At T=0 hr, 0.25 hr, 0.5 hr, 1 hr, 1.5 hr, 2 hr, 3 hr and 5 hr followed oral administration a heat pain threshold was measured (hot water at 50° C.) as well as miosis.
as §1, §2

The conditions of series [3]: in vivo; cited from earlier work.

Where “and” joins values, the source holds several entries; their conditions need not be identical. Identical values can stand only once.

For the molecule `Oc1ccc2c3c1OC1C(O)CCC4(O)C(C2)N(CC2CCC2)CCC314` (centres unmarked) [NB, 3-(cyclobutylmethyl)-1,2,3,4,5,6,7,7a-octahydro-4aH-4,12-methanobenzofuro[3,2-e]isoquinoline-4a,7,9-triol], the “Analgesia (rat)” value in the series with Sprague-Dawley rats was “moderate”. Moreover, the “% MPE (analgesia)” value in the series on healthy volunteers [1] (0 hr (baseline)) is 0.0 % MPE; in the series on healthy volunteers [1] (0.25 hr), 0.0 % MPE and 29.5 % MPE and 5.3 % MPE (2×) and 56.3 % MPE and 21.4 % MPE; with healthy volunteers [1] (0.5 hr), 5.6 % MPE and 39.3 % MPE and 10.5 % MPE and 50.0 % MPE and 21.1 % MPE and 35.7 % MPE; with healthy volunteers [1] (1 hr), 50.0 % MPE and 34.4 % MPE and 42.1 % MPE and 87.5 % MPE and 47.4 % MPE and 57.1 % MPE; in the series with healthy volunteers [1] (1.5 hr), 100.0 % MPE and 54.1 % MPE and 68.4 % MPE and 112.5 % MPE and 73.7 % MPE and 78.6 % MPE; in the series with healthy volunteers [1] (2 hr), 94.4 % MPE and 54.1 % MPE and 94.7 % MPE and 162.5 % MPE and 57.9 % MPE and 50.0 % MPE. The “% MPE (analgesia)” value in the series on healthy volunteers [1] (2.5 hr) was 66.7 % MPE and 82.0 % MPE and 57.9 % MPE and 106.3 % MPE and 36.8 % MPE and 35.7 % MPE; in the series with healthy volunteers [1] (3 hr), 22.2 % MPE and 32.8 % MPE and 68.4 % MPE and 37.5 % MPE and 57.9 % MPE and 0.0 % MPE; in the series on healthy volunteers [1] (5 hr) it was −5.6 % MPE and 27.9 % MPE and 5.3 % MPE (2×) and 26.7 % MPE and 0.0 % MPE. Also, the “% MPE (miosis)” value is 0.0 % MPE in the series with healthy volunteers [2] (0 hr (baseline)); 3.1 % MPE and 9.4 % MPE and 6.7 % MPE and 0.0 % MPE and 3.2 % MPE and 2.9 % MPE with healthy volunteers [2] (0.25 hr); 9.4 % MPE (2×) and 37.5 % MPE and 0.0 % MPE and 9.7 % MPE and 8.8 % MPE in the series on healthy volunteers [2] (0.5 hr); 21.9 % MPE (2×) and 46.9 % MPE and 6.7 % MPE and 45.2 % MPE and −2.9 % MPE in the series on healthy volunteers [2] (1 hr); 17.2 % MPE (2×) and 65.6 % MPE and 25.0 % MPE and 45.2 % MPE and 29.4 % MPE in the series with healthy volunteers [2] (1.5 hr); 18.8 % MPE and 31.3 % MPE (2×) and 55.6 % MPE and 58.1 % MPE and 11.8 % MPE in the series with healthy volunteers [2] (2 hr). Moreover, the “% MPE (miosis)” value is 18.8 % MPE and 3.1 % MPE and 50.0 % MPE and 25.0 % MPE and 25.8 % MPE and 26.5 % MPE in the series on healthy volunteers [2] (2.5 hr); 6.2 % MPE (2×) and 33.3 % MPE and 21.9 % MPE and 16.1 % MPE and 20.6 % MPE in the series on healthy volunteers [2] (3 hr); 6.2 % MPE (2×) and 3.1 % MPE and 22.2 % MPE and 9.7 % MPE and 7.8 % MPE with healthy volunteers [2] (5 hr). In series [3], the oral bioavailability entry is on record as “low”.

Source of the values: patent US11186585B2 (priority 2018, dated 2021).
